This note sets out measurements from DBAASP.

Molecules are shown by their SMILES. ≈ marks a conversion by molar mass, not a printed value. Where “and” joins values, the source holds several entries; their conditions need not be identical. Identical values can stand only once.

Test systems include Escherichia coli; Pseudomonas aeruginosa; Candida albicans; Edwardsiella tarda; Staphylococcus aureus; Bacillus subtilis; Aeromonas hydrophila; Escherichia coli IP76-24; Enterococcus faecium; Cryptococcus neoformans; Escherichia coli D21; Streptococcus agalactiae; Escherichia coli ML-35; Bacillus megaterium Bm11; Serratia marcescens; Bacillus subtilis 168; Escherichia coli 850; Acinetobacter baumannii; Escherichia coli K-12; Escherichia coli 780; Candida albicans CA14.

Holding throughout (test): ≥ marks a high value that may be exact or a test limit, other limits are often not marked, values filed in µg/mL are converted to µM
The test system of assay [1] is Saccharomyces cerevisiae IP118079.
The subject of assay [2] is Aeromonas caviae IP67-16T.
The test system of assay [3] is Trichophyton simii IP1063-74.
The test system of assay [4] is Nocardia brasiliensis IP16-80.
Assay [5] deals with Enterococcus faecalis IP103214.
In assay [6] the test system is Aspergillus fumigatus IP1025-70.
For assay [7], the system named is Aspergillus niger IP218-53.
Assay [8] has as its system Cryptococcus neoformans IP960-67.
Assay [9] deals with Staphylococcus aureus IP76-25.
For assay [10], the system named is Candida albicans IP884-65.
The test system of assay [11] is Serratia marcescens ATCC 8100.
The test system of assay [12] is Staphylococcus epidermidis ATCC 35984.
Assay [13] relates to Staphylococcus aureus Cowan 1.
For assay [14], the system named is Bacillus subtilis KCTC 3068.
In assay [15] the test system is Escherichia coli KCTC 1682.
The test system of assay [16] is Staphylococcus aureus ATCC 25923.
Assay [17] deals with Pseudomonas aeruginosa ATCC 27853.
Assay [18] relates to Salmonella typhimurium KCTC 1926.
The subject of assay [19] is Escherichia coli ATCC 25922.
Assay [20] deals with Escherichia coli O18:K1:H7 Bort.
Assay [21] relates to Salmonella enterica subsp. enterica serovar Typhimurium ATCC 14028.
In assay [22] the test system is Pseudomonas aeruginosa KCTC 1637.
Assay [23] concerns Staphylococcus epidermidis ATCC 12228.
The subject of assay [24] is Staphylococcus epidermidis KCTC 1917.
Assay [25] concerns Staphylococcus aureus KCTC 1621.
Assay [26] concerns Pseudomonas aeruginosa 2760.
Assay [27] concerns Enterococcus faecalis ATCC 29212.
The subject of assay [28] is Klebsiella pneumoniae ATCC 700603.
Assay [29] relates to Staphylococcus aureus 725.
In assay [30] the test system is Bacillus subtilis ATCC 23857.
The subject of assay [31] is Staphylococcus aureus RN4220.
Assay [32] concerns Acinetobacter baumannii ATCC 19606.
Assay [33] has as its system Saccharomyces cerevisiae BY4741.
For assay [34], the system named is Staphylococcus aureus 936.

Broadly, the MIC is the lowest concentration that inhibits growth of the organism. In the case of `CC[C@H](C)[C@H](NC(=O)[C@H](CC(C)C)NC(=O)CNC(=O)[C@H](Cc1cnc[nH]1)NC(=O)[C@@H](NC(=O)[C@H](Cc1cnc[nH]1)NC(=O)[C@H](CCCCN)NC(=O)CNC(=O)[C@@H](NC(=O)[C@H](CO)NC(=O)[C@H](Cc1ccccc1)NC(=O)[C@H](CC(C)C)NC(=O)CNC(=O)CNC(=O)[C@@H](NC(=O)[C@@H](NC(=O)[C@H](Cc1cnc[nH]1)NC(=O)[C@H](Cc1cnc[nH]1)NC(=O)[C@@H](NC(=O)[C@@H](N)Cc1ccccc1)[C@@H](C)CC)[C@@H](C)CC)[C@@H](C)CC)C(C)C)[C@@H](C)CC)C(=O)N[C@@H](Cc1cnc[nH]1)C(=O)NCC(=O)N[C@@H](Cc1cnc[nH]1)C(=O)O` [FIHHIIGGLFSVGKHIHGLIHGH], the MIC is 6.7 µM (≈ 16.9 µg/mL) in the assay with Escherichia coli; 35 µM (≈ 88.4 µg/mL) with Pseudomonas aeruginosa; 20 µM (≈ 50.5 µg/mL) in the assay on Candida albicans; no less than 160 µM in the assay on Edwardsiella tarda; 5 µM (≈ 12.6 µg/mL) with Staphylococcus aureus; 3 µM (≈ 7.58 µg/mL) in the assay on Bacillus subtilis. Further, the MIC against Aeromonas hydrophila is no less than 160 µM.

For the molecule `CC[C@H](C)[C@H](NC(=O)CNC(=O)[C@H](CCCCN)NC(=O)[C@H](CC(C)C)NC(=O)[C@H](CCSC)NC(=O)[C@H](CC(N)=O)NC(=O)[C@H](CCCCN)NC(=O)[C@H](Cc1c[nH]c2ccccc12)NC(=O)[C@H](CC(C)C)NC(=O)[C@H](C)N)C(N)=O` [ALWKNMLKGI], the minimum inhibitory concentration (MIC) in the assay with Escherichia coli IP76-24 is 14 µM (≈ 16.4 µg/mL); in [1], no less than 50 µM; in assay [2], 7 µM (≈ 8.21 µg/mL); in [3], no less than 150 µM; in [4], no less than 150 µM; in [5], 7 µM (≈ 8.21 µg/mL). The MIC in assay [6] was no less than 150 µM; in assay [7] it was no less than 150 µM; in [8], 25 µM (≈ 29.3 µg/mL); in assay [9], no less than 150 µM; in [10] it was no less than 150 µM.

Regarding `CC(C)C[C@H](NC(=O)[C@H](CCCCN)NC(=O)[C@H](CCCCN)NC(=O)[C@H](Cc1ccccc1)NC(=O)[C@H](CC(C)C)NC(=O)[C@H](CCCCN)NC(=O)[C@H](CCCCN)NC(=O)[C@H](Cc1ccccc1)NC(=O)[C@H](CCCCN)NC(=O)[C@H](CCCCN)NC(=O)[C@H](CCCN=C(N)N)NC(=O)[C@H](Cc1ccccc1)NC(=O)[C@H](CCCN=C(N)N)NC(=O)[C@H](CCCCN)NC(=O)[C@H](Cc1ccccc1)NC(=O)[C@H](CCCN=C(N)N)NC(=O)CN)C(=O)N[C@@H](CO)C(N)=O` [GRFKRFRKKFKKLFKKLS], the minimum inhibitory concentration (MIC) was 8 µM (≈ 18.7 µg/mL) with Enterococcus faecium; 2 µM (≈ 4.68 µg/mL) in [11]; 2 µM (≈ 4.68 µg/mL) in assay [12]; 2 µM (≈ 4.68 µg/mL) in assay [13]; 4 µM (≈ 9.37 µg/mL) in the assay with Cryptococcus neoformans; 4 µM (≈ 9.37 µg/mL) in assay [14]. Also, the minimum inhibitory concentration (MIC) is 4 µM and 2.83 µM in assay [15]; 4 µM (≈ 9.37 µg/mL) against Escherichia coli D21; 2 µM and 4 µM in [16]; 2 µM (≈ 4.68 µg/mL) in [17]; 2 µM (≈ 4.68 µg/mL) in [18]; 1 µM (≈ 2.34 µg/mL) against Streptococcus agalactiae. The MIC amounted to 16 µM (≈ 37.5 µg/mL) in the assay with Candida albicans; 2 µM (≈ 4.68 µg/mL) in assay [19]; 4 µM (≈ 9.37 µg/mL) in the assay with Staphylococcus aureus; 8 µM (≈ 18.7 µg/mL) in [20]; 4 µM (≈ 9.37 µg/mL) in assay [21]; 4 µM (≈ 9.37 µg/mL) in [22]. The MIC is 1 µM (≈ 2.34 µg/mL) in assay [23]; 4 µM (≈ 9.37 µg/mL) against Escherichia coli ML-35; 4 µM (≈ 9.37 µg/mL) in assay [24]; 4 µM and 2.83 µM in [25]; 2 µM (≈ 4.68 µg/mL) with Bacillus megaterium Bm11; 4 µM (≈ 9.37 µg/mL) against Serratia marcescens.

On to `CC[C@H](C)[C@H](NC(=O)[C@H](CCCCN)NC(=O)[C@H](CCCCN)NC(=O)[C@H](C)NC(=O)[C@H](CC(C)C)NC(=O)[C@H](C)NC(=O)[C@H](C)NC(=O)[C@H](CC(C)C)NC(=O)[C@H](C)NC(=O)[C@H](CCCCN)NC(=O)[C@H](CC(C)C)NC(=O)[C@H](CC(N)=O)NC(=O)[C@@H](NC(=O)[C@H](CCCCN)NC(=O)CNC(=O)[C@H](CC(C)C)NC(=O)[C@H](CC(C)C)NC(=O)[C@H](Cc1ccc(O)cc1)NC(=O)CNC(=O)[C@H](C)N)[C@@H](C)CC)C(=O)N[C@@H](CC(C)C)C(=O)O` [AGYLLGKINLKALAALAKKIL], for which the MIC in assay [26] was 7.33 µM (≈ 16 µg/mL); in [27] it was 14.7 µM (≈ 32 µg/mL); with Bacillus subtilis 168, 10 µM (≈ 21.8 µg/mL); against Escherichia coli 850, 7.33 µM (≈ 16 µg/mL); with Acinetobacter baumannii, 3.67 µM (≈ 8 µg/mL); in the assay with Escherichia coli K-12, 10 µM (≈ 21.8 µg/mL). The minimum inhibitory concentration (MIC) turned out to be 14.7 µM (≈ 32 µg/mL) in [28]; 7.33 µM (≈ 16 µg/mL) with Escherichia coli 780; 7.33 µM (≈ 16 µg/mL) in assay [16]; 7.33 µM (≈ 16 µg/mL) in assay [29]; 3.67 µM (≈ 8 µg/mL) in assay [30]; 14.7 µM (≈ 32 µg/mL) in [17]. The minimum inhibitory concentration (MIC) in assay [31] turned out to be 4 µM (≈ 8.73 µg/mL); in assay [19] it was 7.33 µM (≈ 16 µg/mL); in [32] it was 3.67 µM (≈ 8 µg/mL); in [33], 8 µM (≈ 17.5 µg/mL); against Candida albicans CA14, 4 µM (≈ 8.73 µg/mL); in assay [34], 7.33 µM (≈ 16 µg/mL).
